Measured values from patent US11998532B1 (priority 2023, dated 2024).
Converted amounts (≈) assume the structure as drawn.

System: Susceptible (H37Rv) strain of Mycobacterium tuberculosis
Test: Resazurin Microplate Assay (REMA), anti-tubercular activity, H37Rv
Format: cell-based
Conditions: 192 h, read-out: MIC Susceptible (H37Rv)

SMILES	MIC
COc1ccc(Cl)cc1-n1ncc(-c2nnc(-c3ccc(C)c([N+](=O)[O-])c3)o2)c1C [Compound 7j, 2-(1-(5-Chloro-2-methoxyphenyl)-5-methyl-1H-pyrazol-4-yl)-5-(4-methyl-3-nitrophenyl)-1,3,4-oxadiazole]	32 µg/mL (≈ 75.1 µM)
COc1ccc(Cl)cc1-n1ncc(-c2nnc(-c3ccc(Br)cc3)o2)c1C [Compound 7e, 2-(4-Bromophenyl)-5-(1-(5-chloro-2-methoxyphenyl)-5-methyl-1H-pyrazol-4-yl)-1,3,4-oxadiazole]	8 µg/mL (≈ 17.9 µM)
COc1ccc(Cl)cc1-n1ncc(-c2nnc(-c3ccc(Cl)cc3)o2)c1C [Compound 7a, 2-(1-(5-Chloro-2-methoxyphenyl)-5-methyl-1H-pyrazol-4-yl)-5-(4-chlorophenyl)-1,3,4-oxadiazole]	4 µg/mL (≈ 9.97 µM)
COc1ccc(Cl)cc1-n1ncc(-c2nnc(-c3cccc(F)c3)o2)c1C [Compound 7g, 2-(1-(5-Chloro-2-methoxyphenyl)-5-methyl-1H-pyrazol-4-yl)-5-(3-fluorophenyl)-1,3,4-oxadiazole]	8 µg/mL (≈ 20.8 µM)
COc1ccc(Cl)cc1-n1ncc(-c2nnc(-c3ccc(Br)c(C)c3)o2)c1C [Compound 7f, 2-(4-Bromo-3-methylphenyl)-5-(1-(5-chloro-2-methoxyphenyl)-5-methyl-1H-pyrazol-4-yl)-1,3,4-oxadiazole]	32 µg/mL (≈ 69.6 µM)
COc1ccc(Cl)cc1-n1ncc(-c2nnc(-c3ccc(F)cc3)o2)c1C [Compound 7b, 2-(1-(5-Chloro-2-methoxyphenyl)-5-methyl-1H-pyrazol-4-yl)-5-(4-fluorophenyl)-1,3,4-oxadiazole]	4 µg/mL (≈ 10.4 µM)
COc1ccc(Cl)cc1-n1ncc(-c2nnc(-c3ccc(Cl)c(Cl)c3)o2)c1C [Compound 7i, 2-(1-(5-Chloro-2-methoxyphenyl)-5-methyl-1H-pyrazol-4-yl)-5-(3,4-dichlorophenyl)-1,3,4-oxadiazole]	16 µg/mL (≈ 36.7 µM)
COc1ccc(Cl)cc1-n1ncc(-c2nnc(-c3cc(Cl)cc(Cl)c3)o2)c1C [Compound 7h, 2-(1-(5-Chloro-2-methoxyphenyl)-5-methyl-1H-pyrazol-4-yl)-5-(3,5-dichlorophenyl)-1,3,4-oxadiazole]	4 µg/mL (≈ 9.18 µM)
COc1ccc(Cl)cc1-n1ncc(-c2nnc(-c3ccccc3)o2)c1C [Compound 7d, 2-(1-(5-Chloro-2-methoxyphenyl)-5-methyl-1H-pyrazol-4-yl)-5-phenyl-1,3,4-oxadiazole]	16 µg/mL (≈ 43.6 µM)
COc1ccc(Cl)cc1-n1ncc(-c2nnc(-c3ccc(C)c(Br)c3)o2)c1C [Compound 7c, 2-(3-Bromo-4-methylphenyl)-5-(1-(5-chloro-2-methoxyphenyl)-5-methyl-1H-pyrazol-4-yl)-1,3,4-oxadiazole]	16 µg/mL (≈ 34.8 µM)
